This note sets out measurements from patent publication US11932610B1, “4-(5-(3-fluorophenyl)-4-phenyl-4H-1,2,4-triazol-3-ylthio)butanoic acid as an antimicrobial compound” (priority 2023, dated 2024).

For data set [1], the system named is Bacillus cereus, Staphylococcus aureus, Pseudomonas aeruginosa, Escherichia coli, Aspergillus flavus, Chrysosporium keratinophilum. As to the kind of experiment: agar plate disc-diffusion antimicrobial test. The class given is cell-based. The note with it: 6 mm discs wetted with 10 μL of 10 mg/mL in DMSO; 37° C., 48 h (72 h for fungi); DMSO control zone subtracted. On the procedure:
The agar plate disc-diffusion method was applied. Sterilized filter papers (6 mm in diameter) were wetted with 10 μL of a solution of 4-(5-(3-fluorophenyl)-4-phenyl-4H-1,2,4-triazol-3-ylthio)butanoic acid (III) to be tested, containing 10 mg/mL in DMSO, and the discs were allowed to air dry. The discs were then placed onto the surface of agar plates (nutrient agar for bacteria and Sabouraud's dextrose agar for fungi) seeded with the test organism. Each plate contained 15 mLof the agar medium, previously seeded with 0.2 mL of the broth culture of each organism pregrown for 18 h. The plates were incubated at 37° C. for 48 h, and 72 h for fungi. The inhibition zones was measured in mm. Discs impregnated with DMSO were used as a control, and its inhibition zone was subtracted from the tested compound actual inhibition zone. […] The antibacterial activity was screened against gram positive bacteria namely Bacillus cereus and Staphylococcus aureus and gram-negative bacterial strains namely Pseudomonas aeruginosa and Escherichia coli, while the antifungal activity was screened against Aspergillus flavus and Chrysosporium keratinophilum.

Structures are written as SMILES.

Turning to `O=C(O)CCCSc1nnc(-c2cccc(F)c2)n1-c1ccccc1` [III, 4-(5-(3-fluorophenyl)-4-phenyl-4H-1,2,4-triazol-3-ylthio)butanoic acid], the melting point amounted to 173 °C. Further, in data set [1], the “antimicrobial activities against different microbes” value is recorded as “excellent antimicrobial activities”.
